Assay results taken from US8889661B2 (Teva Pharmaceutical Industries, Ltd., priority 2010, dated 2014).

Assays:
[1] = tested on: (NZBxNZW)F1 mice; settings: for proteinuria (PU): Week 12 observation, vs vehicle (water), laquinimod 25 mg/kg p.o. daily, CTX once weekly i.p., MW U test; for immune complex deposition (ICD) in kidney: end of experiment (12 weeks), vs vehicle, scoring and image analysis
Excerpt: Systemic Lupus Erythematosus (SLE) is a disorder of generalized autoimmunity characterized by defective T cell-mediated responses and the formation of a variety of antibodies reactive to self or altered self-antigens. SLE is mainly characterized by the presence of anti-DNA antibodies. Some of these auto-antibodies combine with the corresponding auto-antigens, forming immune complexes, either in the circulating blood or directly in tissues, resulting in severe damage. Glomerulonephritis induced by immune complexes is in fact the major cause of death in patients with SLE. (NZBxNZW)F1 are lupus-prone mice that develop an SLE-like disease spontaneously including anti-dsDNA antibodies (Abs), proteinuria and Immune Complex Deposits (ICD). The (NZBxNZW)F1 (NZB/W) murine model is the hallmark of spontaneous SLE.
MTX is an antimetabolite drug used in treatment of cancer and autoimmune diseases. It acts by inhibiting the metabolism of folic acid via the inhibition of dihydrofolate reductase and blocks DNA synthesis in rapidly proliferate cells. These actions include immunosuppression.
CTX was applied once weekly in a dose of […] i.p. MTX was applied 3 times a week p.o. at 35 μg/mouse.
Also, body weight changes were recorded weekly and at the end of experiment both kidneys were preserved, one for possible conventional histology and one for immune complex detection (ICD) in glomeruli. Evaluation of ICD was performed by scoring and by image analysis.
80 animals were involved in the study.

[2] = in vivo; cited from earlier work
[3] = tested on: active lupus nephritis patients; test: Phase IIa clinical trial of laquinimod in combination with standard of care (MMF and steroids) in active lupus nephritis; assay type: in vivo, human
Excerpt: Approximately 45 Systemic Lupus Erythematosus patients with active lupus nephritis (LN) are enrolled. [ISN/RPS 2003 classification of lupus nephritis—classes III (A or A/C), IV-S or IV-G (A or A/C), or class V—pure or in combination with class III or IV].
The overall study duration is up to 32 weeks, with the screening phase being up to 4 weeks, the treatment period being 24 weeks and the follow-up period being 4 weeks for all subjects who complete the 24-week treatment period or subjects who prematurely discontinue treatment prior to Week 24 visit.
Placebo arm—2 capsules of placebo. Mycophenolate Mofetil (MMF)
MMF tablets 500 mg. All treatment arms receive MMF at baseline and throughout the study to a target dose of 2 g/day.
Subjects are assessed for study eligibility up to 4 weeks prior to baseline. Eligible subjects are initially randomized in a 1:1 ratio into one of the following two treatment arms: • 1.
Upon approval, randomization into one of the following three treatment arms occurs in a ratio that allows for reaching an overall target enrollment of approximately 15 subjects per treatment arm. Drop-outs are not replaced. • 1.
In addition, all receive IV methylprednisolone 500 mg/day for 3 days followed by 40 mg/day oral prednisolone/prednisone, which is tapered to not more than 10 mg/day by the end of Week 20, on a fixed steroid tapering regimen).
Any of the following results in early termination from the study: • 1. Increase in serum creatinine without improvement in proteinuria from 8 weeks onward (confirmed by repeated measurement within 2 weeks), defined as: • a. Serum creatinine >1.3 mg/dL that is at least 25% higher than the baseline value; and • b. […] Doubling of protein to creatinine ratio compared to baseline and protein to creatinine ratio >3 from Week 8 onwards (confirmed by repeated measurement within 2 weeks. At least one of the measurements should be a 24 hours urine collection). Outcome Measures Response Definitions • 1. Complete response (CR)—protein to creatinine ratio <0.5 and [decreased serum creatinine by at least 25% compared to baseline or serum creatinine <1.3 mg/dL]. • 2. […] BILAG renal response is defined as change from renal A or B at baseline to C or D. • 4. BILAG Substantial Responder (SR) is defined as all systems at last observed value (LOV) are C or D/E providing at least one system is A or B at baseline. Clinical Effect Outcome Measure Renal—System 1. Proportion of Subjects with Complete or Partial Response at Week 24 and the Lack of Treatment Failure

[4] = tested on: (NZBxNZW)F1 mice; test: Survival dose response study of laquinimod in the (NZBxNZW)F1 model for SLE, 37 weeks; assay type: in vivo, mouse
Experimental: The positive control used was Cytoxan.
CTX was administered intraperitonealy once weekly, (200 μl/mouse). Blood samples were collected on Weeks 1, 5, 15 and 37. Serum samples were prepared for detection of anti-dsDNA antibodies. After 37 weeks (257 days) of treatment, mice were sacrificed.

[5] = tested on: (NZBxNZW)F1 mice; test: Confirmation of efficacy of laquinimod in the (NZBxNZW)F1 model for SLE, 13 weeks; assay type: in vivo, mouse
Experimental: CTX was administered intraperitonealy once weekly, (200 μl/mouse). Blood samples were collected on Weeks 1, 5, and 11. Serum samples were prepared for detection of anti-dsDNA antibodies. After 13 weeks of treatment, mice were sacrificed and immune complex deposits in their kidneys were evaluated.

[6] = tested on: MRL/lpr lupus mouse model; test: Non-GLP in vivo evaluation of laquinimod in the MRL/lpr lupus mouse model; settings: for kidney glomerulonephritis (histopathology) / salivary gland inflammation (histopathological scoring): laquinimod 5 mg/kg, vs vehicle; for kidney glomerulonephritis (histopathology): MMF 100 mg/kg p.o.; for salivary gland inflammation (histopathological scoring): MMF 100 mg/kg
Experimental: This study evaluates the efficacy of laquinimod in the MRL/lpr lupus mouse model.
Animals were monitored until their urine proteinuria reached >200 mg/dL at which time they were enrolled in the study.
Proteinuria, ankle and paw diameters, dsDNA autoantibody levels and survival were monitored during in life portion of the study. At termination, blood samples were harvested for determination of dsDNA autoantibody levels, spleens were harvested and weighed then processed to isolate splenocytes which were counted. Kidney, lung, skin, lymph node, salivary gland and joints were harvested, processed for histological examination and scored by a histopathologist blind to the treatments.

[7] = daily oral 0.5 mg or 1 mg laquinimod with standard of care (MMF and steroids)
[8] = daily oral 0.5 mg or 1 mg laquinimod with standard of care, during the study period

CN(Cc1cnc2nc(N)nc(N)c2n1)c1ccc(C(=O)N[C@@H](CCC(=O)O)C(=O)O)cc1 [MTX, methotrexate]
animals died during the treatment period ([1]; 12 weeks treatment, 80 animals in the study): 2 | symptoms (proteinuria and immune complex deposition in kidney) ([1]; MTX 35 μg/mouse p.o. 3 times a week, 12 weeks): failed to inhibit

O=P1(N(CCCl)CCCl)NCCCO1 (stereo not drawn) [CTX, cyclophosphamide]
proteinuria (PU) [1]: significantly diminished | immune complex deposition (ICD) in kidney [1]: significantly inhibited

CCN(C(=O)c1c(O)c2c(Cl)cccc2n(C)c1=O)c1ccccc1 [laquinimod]
oral bioavailability [2]: high | effect of the combination of laquinimod, MMF and steroids on active lupus nephritis ([3]; 0.5 mg and 1.0 mg laquinimod daily with MMF and steroids): significantly more than the additive effect of each agent alone | complete response (CR) [3, 7]: results in a complete response | partial response (PR) [3, 7]: results in a partial response | proteinuria [3, 7]: reduces proteinuria | tolerability and toxicity [3, 7]: well tolerated and has no toxicity | treatment of active lupus nephritis [3, 7]: effective to treat active lupus nephritis | urinary sediments [3, 7]: eliminates urinary sediments | decrease of glomerular filtration rate (GFR) as compared to baseline [3, 8]: no more than 10% | glomerular filtration rate (GFR) reached [3, 8]: greater than 70 ml/min/1.73 m^2 | increase of glomerular filtration rate (GFR) as compared to baseline [3, 8]: at least 25% | progression of proteinuria ([4]; all doses of laquinimod (0.2, 1, 5, 25 mg/kg p.o. 5 days a week), vs vehicle): abrogated the progression of proteinuria | survival ([4]; all doses of laquinimod, 37 weeks): significant prolongation of survival | proteinuria, compared with positive control CTX ([4]; laquinimod doses of 1, 5 and 25 mg/kg): as effective as the positive control cyclophosphamide (CTX) | proteinuria ([4]; laquinimod lowest dose (printed 0.2 mg/ml), compared to the higher doses): abrogated proteinuria but not to the same extent | anti-dsDNA levels ([4]; serum, Weeks 1, 5, 15 and 37): dose dependent reduction in antibody levels over time | anti-dsDNA levels ([5]; laquinimod 5 mg/kg): behaved similarly to the positive control CTX | immune complex deposits ([5]; laquinimod 5 mg/kg): behaved similarly to the positive control CTX | disease progression as measured by proteinuria ([5]; laquinimod 0.2 and 5 mg/kg p.o. 5 days a week, 13 weeks): abrogated disease progression | ICD (immune complex deposits) ([5]; laquinimod low dose 0.2 mg/kg): did not inhibit | anti-dsDNA Ab titers ([5]; laquinimod low dose 0.2 mg/kg): did not inhibit | proteinuria ([5]; laquinimod low dose 0.2 mg/kg): prevented increased proteinuria | bone resorption (joint histopathology) ([6]; both doses of laquinimod (1 and 5 mg/kg) vs vehicle): Significant reductions | salivary gland inflammation score, higher vs lower dose ([6]; laquinimod 5 mg/kg compared with 1 mg/kg): significantly lower score | cartilage damage (joint histopathology) ([6]; laquinimod 5 mg/kg vs vehicle): significant reduction | joint inflammation (histopathology) ([6]; laquinimod 5 mg/kg vs vehicle): significantly reduced | splenocytes as percent of total spleen cells ([6]; laquinimod 5 mg/kg vs vehicle): significant reduction | kidney glomerulonephritis (histopathology) [6]: significant reductions | salivary gland inflammation (histopathological scoring) [6]: significant reduction | measures during the in life phase (proteinuria, ankle and paw diameters, dsDNA autoantibody levels, survival) ([6]; laquinimod 1 or 5 mg/kg p.o., trends not significant except sporadic time points): trend toward dose dependent efficacy | proteinuria (PU) [1]: significantly diminished | immune complex deposition (ICD) in kidney [1]: significantly inhibited

COc1c(C)c2c(c(O)c1C/C=C(\C)CCC(=O)OCCN1CCOCC1)C(=O)OC2 [MMF, 2-morpholinoethyl (E)-6-(1,3-dihydro-4-hydroxy-6-methoxy-7-methyl-3-oxo-5-isogenzofuranyl)-4-methyl-4-hexenoate, reference compound]
lung BALT hyperplasia (histopathology) ([6]; MMF 100 mg/kg p.o. vs vehicle): significant difference | kidney glomerulonephritis (histopathology) [6]: significant reductions | salivary gland inflammation (histopathological scoring) [6]: significant reduction
